Experimental data as given in PMC11999338, “Factor XI localization in human deep venous thrombus and function of activated factor XI on venous thrombus formation and hemostasis” (Research and Practice in Thrombosis and Haemostasis, 2025).
Entries after “also recorded” stand apart in the source; their conditions may differ.

Tests used:
jugular vein thrombus [1] = test: Rabbit model of jugular vein thrombosis by endothelial denudation and luminal stenosis; type: in vivo; details: rabbits; for venous thrombus weight compared with control: 90 minutes before thrombus formation, thrombus weighed after 3 hours
Protocol: The protocols of the venous thrombosis and skin bleeding models in rabbits were as follows (Supplementary Figure 2). First, fasting rabbits were orally administered a solvent as a control (n = 10), a FXIa inhibitor (ONO-1600586, 5 mg/kg, n = 10; 15 mg/kg, n = 10; and 50 mg/kg, n = 11), or a FXa inhibitor ([…], n = 10 each) using a Nelaton catheter of 5 mm diameter (IZUMO Health Co, Ltd) 90 minutes before thrombus formation. […] Additional anesthesia with one-third amount of the above-mentioned mixture of drugs was administered 80 minutes after the first injection, and all surgical operations proceeded under aseptic conditions. Briefly, 90 minutes postadministration of the solvent, ONO-1600586, or rivaroxaban, venous thrombi were induced in rabbit jugular veins through endothelial denudation using a 3F balloon catheter (Edwards Lifesciences), according to a previous study, and the method was modified to induce luminal stenosis. A 2 mm polyethylene tube was placed outside the vessel. Both the jugular vein and polyethylene tube were ligated, and the tube was removed (Supplementary Figure 3). Next, 3 hours after thrombus formation and stenosis, the rabbits were infused with heparin (500 U/kg, i.v.) and then euthanized with an overdose of pentobarbital (60 mg/kg, i.v.). Subsequently, the animals were perfused with 50 mL phosphate-buffered saline (0.01 mol/L), and the jugular veins were sampled. The venous thrombi were immediately removed from the venous wall and weighed. […] Paraffin-embedded sections (4 μm thick) of the rabbit jugular vein thrombus were stained with HE and morphologically assessed. Consecutive sections of thrombi were immunohistochemically stained with antibodies against fibrin (Millipore) and GPIIb/IIIa (Affinity Biologicals Inc). Images were digitized using a photosensitive color CCD camera (BX51, OLYMPUS). Finally, the area of the red-stained erythrocytes in HE staining and the immunopositive areas for fibrin and GPIIb/IIIa were semiquantified using a color imaging morphometry system (WinROOF, Mitani).

jugular vein thrombus [2] = test: Stasis-induced thrombus formation in rabbit jugular veins; type: in vivo; details: rabbits, oral ONO-1600586 50 mg/kg or rivaroxaban 15 mg/kg 60 minutes before stasis, 6 hours stasis
Protocol: The protocols of venous thrombosis by stasis were as follows (Supplementary Figure 4). First, fasting rabbits were orally administered a solvent as a control (n = 8), a FXIa inhibitor (ONO-1600586, 50 mg/kg, n = 8), or a FXa inhibitor (rivaroxaban, 15 mg/kg, n = 8) using a Nelaton catheter of 5 mm diameter (IZUMO Health Co, Ltd) 60 minutes before thrombus formation. The process of thrombus formation was performed under general anesthesia through the subcutaneous injection of a mixture of medetomidine hydrochloride (0.08 mg/kg body weight), butorphanol tartrate (0.2 mg/kg), and midazolam (0.4 mg/kg). Briefly, 60 minutes postadministration of the solvent, ONO-1600586, or rivaroxaban, venous thrombi were induced in rabbit jugular veins by ligations and luminal stenosis. To induce luminal stenosis, a 1 mm polyethylene tube was placed outside the vessel. Both the jugular vein and polyethylene tube were ligated 4 cm upstream of the ligature, and the tube was removed (Supplementary Figure 5). Next, 6 hours after stasis in the jugular vein, the rabbits were infused with heparin (500 U/kg, i.v.). They were then euthanized with an overdose of pentobarbital (60 mg/kg, i.v.), and the jugular veins were sampled. In this model, the animals were not perfused with phosphate-buffered saline because the thrombi were fragile. The venous thrombi were immediately removed from the venous wall and weighed.

PT and aPTT = PT and aPTT of human blood with inhibitor added in vitro; type: biochemical; details: ONO-1600586 3 μmol/L, rivaroxaban 1 μmol/L
[3] = system: human thrombus formation in vitro; test: In vitro human blood perfusion in flow chamber on collagen and tissue factor (70/s); type: cell-based; details: rivaroxaban 1 μmol/L, low-shear 70/s
Protocol: The Ethics Committee of the University of Miyazaki approved this study (approval number O-1160). The Collagen Reagent HORM (Takeda Pharmaceutical, 20 μg/mL) and recombinant tissue factor (Dade Innovin, ×1000, Siemens) were immobilized on glass coverslips (24 × 50 mm) in parallel-plate flow chambers, as described above. Blood from healthy human volunteers who were not on medication was collected using 21-gauge needles into plastic syringes containing a corn trypsin inhibitor (Molecular Innovations, final concentration 10 μg/mL). Anticoagulated whole blood was used for the perfusion. The solvent (n = 10), FXIa inhibitor (ONO-1600586, 3 μmol/L, n = 10) or FXa inhibitor (rivaroxaban, 1 μmol/L, n = 10), and mepacrine (Sigma-Aldrich, final concentration 5 μM) were added to the blood before perfusion. Blood samples were perfused through the chamber using a syringe pump (KDS100, KD Scientific Inc) at a constant flow rate (15 mL/h) to achieve wall shear rates of 70/s. Finally, the surface covering area, fibrin-immunopositive area, and the number of neutrophils were analyzed as described above.
The pre-and postperfused blood samples were collected into a tube containing 3.8% sodium citrate anticoagulant (9:1 v/v). Plasma samples were centrifuged at 1500 × g for 15 minutes at room temperature. FXIa and FXa activities were measured using an automatic blood coagulation analyzer (ACL-TOP, Werfen), as well as FXI-deficient plasma (HemosIL Factor XI Deficient Plasma and HemosIL SynthASil APTT, Werfen) and FX-deficient plasma (HemosIL Factor X Deficient Plasma and HemosIL RecombiPlasTin, Werfen). The plasma levels of prothrombin fragment 1 + 2 were measured using an enzyme-linked immunosorbent assay (Enzygnost F1 + 2 Monoclonal, Siemens).

Question: For `O=C(NC[C@H]1CN(c2ccc(N3CCOCC3=O)cc2)C(=O)O1)c1ccc(Cl)s1` [rivaroxaban], which “venous thrombus weight compared with control” value (jugular vein thrombus [1]; 1 mg/kg oral (so in the source)) is on record?
Answer: tended to reduce

Question: What about the “venous thrombus weight compared with control” value (jugular vein thrombus [1]; 5 mg/kg oral) of the same compound?
Answer: tended to reduce

Question: And the “venous thrombus weight compared with control” value (jugular vein thrombus [1]; 15 mg/kg oral, 15 mg/kg)?
Answer: significantly reduced; also recorded: similarly reduced

Question: And the “immunopositive area of fibrin in venous thrombus” value (jugular vein thrombus [1]; compared with control and ONO-1600586 groups)?
Answer: tended to be smaller

Question: And the “areas of erythrocytes or immunopositive areas of fibrin or GPIIb/IIIa in venous thrombus” value (jugular vein thrombus [1]; histology of jugular vein thrombus, comparison among groups)?
Answer: did not differ

Question: What about the “stasis-induced venous thrombus weight compared with control” value (jugular vein thrombus [2]) of the same compound?
Answer: significantly reduced; also recorded: similarly reduced

Question: What about the “PT compared with control” value (PT and aPTT) of the same compound?
Answer: 1.9 fold

Question: What about the “aPTT compared with control” value (PT and aPTT) of the same compound?
Answer: 1.8 fold

Question: What about the PT (PT and aPTT; n = 8) of the same compound?
Answer: 19 ± 3 s

Question: What about the aPTT (PT and aPTT; n = 8) of the same compound?
Answer: 62 ± 5 s

Question: What about the “fibrin formation in the flow chamber” value ([3]; ONO-1600586 3 μM) of the same compound?
Answer: markedly decreased

Question: And the leukocyte adhesion ([3]; ONO-1600586 3 μmol/L)?
Answer: did not affect

Question: What about the “plasma levels of prothrombin fragment 1 + 2 after perfusion” value ([3]; ONO-1600586 3 μmol/L) of the same compound?
Answer: reduced

Question: What about the platelet covering area ([3]; ONO-1600586 3 μmol/L) of the same compound?
Answer: did not affect

Question: What about the “FXa activity in the plasma after perfusion” value [3] of the same compound?
Answer: reduced
